What was measured:
[1] = system: patients suffering from clinically relevant obesity (BMI>30) and sleep apnoea; assay: open explorative study with 5 volunteer patients with obesity and sleep apnoea
Protocol: Study design: An open explorative study with 5 volunteer patients suffering from clinically relevant obesity (BMI>30) and sleep apnoea was performed. […] No other control treatment was applied.
Methods: Patients willing to lose weight who had obtained prescriptions for Reductil® (Knoll) from their doctor were asked to take part in this voluntary observational study. All patients were willing to change dietary habits during treatment, and to perform at least moderate physical training (twice a week at least half an hour). Patients were interviewed pre and post treatment, and their partners asked for their observations on snoring behaviour. The patients were asked for their own rating of severity of daytime sleepiness, and their partners for objective observations about frequency and heaviness of snoring as well as for their observations about apnoea signs.

[2] = system: patients suffering from clinically relevant obesity, many with serious sleep apnoea problems; assay: clinical study, computer supported arousal/apnoea recognition in subset of 36 of 150 obese patients; assay type: in vivo, human; details: Sibutramine 20 mg daily; week-12 vs week-1 (pre-treatment); subset of 36 patients
Protocol: The beneficial effects of the compounds of the present invention at doses of 15 mg and 20 mg daily may also be confirmed in a double-blind, randomised, placebo-controlled clinical trial using questionnaires or by recording Holter ecgs with a Rozin/GeTeMed tape recorder device for 24 to 36 hours pre and post treatment period, using IEC-I type tapes. The ecg data may be computer-processed to study arousals.
In a clinical study with 150 patients suffering from clinically relevant obesity, many of them with serious sleep apnoea problems, a subset of 36 patients was arbitrarily selected for computer supported arousal/apnoea recognition. Two consecutive nights were recorded at week-1 (pre-treatment) and week-12 of treatment, and the number of arousals per hour of sleep time was evaluated. […] Compared to placebo this is significant at a 5%-level (p=0.0227).

[3] = 5 patients, 10 or 15 mg daily, 6 to 14 weeks

Q: What does the source list for `CC(C)CC(N(C)C)C1(c2ccc(Cl)cc2)CCC1` (stereo not drawn) [sibutramine, N,N-dimethyl-1-[1-(4-chlorophenyl)cyclobutyl]-3-methylbutylamine]?
A: mean weight loss under treatment [1, 3]: 14 kg; weight loss, span over patients [1, 3]: −7% to −22%; mean weight loss under treatment (percent) ([1]; 5 patients, 10 or 15 mg/kg daily, 6 to 14 weeks): 14.6%; Mean BMI at end of treatment ([1]; 5 patients, sibutramine 10 or 15 mg daily, 6 to 14 weeks, 34 before treatment): 29; arousal index Al, mean after treatment ([1]; mean 23,5 before treatment): 10,0; patients with clearly reduced daytime sleepiness ([1]; of 5 patients, after treatment): 4 out of 5; patients reporting improved ease of breathing with closed mouth ([1]; of 5 patients, under treatment): 3 out of 5; decrease of arousal index, span over patients ([1]; pre vs post treatment): −25% to −67%; mean decrease of arousal index ([1]; pre vs post treatment): −57%; daytime sleepiness scale after treatment, patient-reported ([1]; scale 0-3, 2,0 before treatment): 0,6; snoring scale mean after treatment, observed by sleep companions ([1]; scale 0-3, mean score 2,2 before treatment): 1; reduction of number of arousals per hour of sleep time [2]: clinically significant effect

Source: patent publication US6365631B1, “Method of treating sleep apnoea” (Knoll Pharmaceutical Company, priority 1999, dated 2002)
